# Experimental data: US5886178A, “3-aroylbenzylpyridazinone derivatives” (Syntex (U.S.A.) Inc., priority 1997, dated 1999)
# Columns and labels:
# [1] = target: COX I (Homo sapiens, UniProt P23219); test: Inhibition of COX I in vitro, partially purified enzyme, radiometric assay; type: biochemical; design: made in house; settings: 20 micromolar arachidonic acid
# Procedure: (§1) The COX I and COX II inhibitory activity of compounds of this invention in vitro was determined using partially purified COX I and COX II enzymes, prepared as described in J. Barnett et al, Biochim. Biophys.
# (§2) COX I and COX II samples were diluted with Tris-HCl buffer (50 mM Tris-HCl, pH 7.9) containing 2 mM EDTA and 10% glycerol and reconstituted by incubating first with 2 mM phenol for 5 minutes and then with 1 micromolar hematin for an additional 5 minutes. 125 μl of the reconstituted COX I or COX II enzyme were preincubated for 10 minutes at room temperature in a shaking water bath with the compounds of the invention dissolved in 2-15 μl of DMSO or the carrier vehicles (control samples). The enzyme reaction was initiated by adding 25 μl of 1-[14C]arachidonic acid (80,000-100,000 cpm/tube; 20 micromolar final concentration) and the reaction was allowed to continue for an additional 45 seconds. The reaction was terminated by adding 100 μl of 2N HCl and 750 μl water. An aliquot (950 μl) of the reaction mixture was loaded onto a 1 ml C18 Sep-Pak column (J. T. Baker, Phillipsburg, N.J.) which had been previously washed with 2-3 ml methanol and equilibrated with 5-6 ml distilled water. Oxygenated products were quantitatively eluted with 3 ml of acetonitrile/water/acetic acid (50:50:0.1, v/v) and the radioactivity in the eluate determined in a scintillation counter.
# [2] = target: T1, COX II (Homo sapiens, UniProt P35354); test: Inhibition of COX II in vitro, partially purified enzyme, radiometric assay; type: biochemical; design: made in house; settings: 20 micromolar arachidonic acid
# T1 sequence (P35354 18-604): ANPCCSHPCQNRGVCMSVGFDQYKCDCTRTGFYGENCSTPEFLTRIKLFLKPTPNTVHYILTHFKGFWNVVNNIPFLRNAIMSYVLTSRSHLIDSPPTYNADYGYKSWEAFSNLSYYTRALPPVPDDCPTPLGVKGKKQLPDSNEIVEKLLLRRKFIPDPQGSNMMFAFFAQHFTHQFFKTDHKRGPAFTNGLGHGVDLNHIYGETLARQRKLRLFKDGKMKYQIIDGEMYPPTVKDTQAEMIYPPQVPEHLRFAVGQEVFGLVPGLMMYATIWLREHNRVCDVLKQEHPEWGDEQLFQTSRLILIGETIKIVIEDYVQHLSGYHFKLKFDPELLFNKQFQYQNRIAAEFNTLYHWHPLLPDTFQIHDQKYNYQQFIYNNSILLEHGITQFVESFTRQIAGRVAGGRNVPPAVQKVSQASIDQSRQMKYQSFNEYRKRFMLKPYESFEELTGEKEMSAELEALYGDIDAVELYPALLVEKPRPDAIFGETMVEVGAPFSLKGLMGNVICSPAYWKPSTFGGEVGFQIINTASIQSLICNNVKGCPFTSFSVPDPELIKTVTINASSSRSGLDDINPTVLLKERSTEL
# Procedure: as §1, §2
# [3] = system: prostaglandin E2 synthesis; test: Inhibition of eicosanoid (PGE2) synthesis in vivo, carrageenan air-pouch model in rats; design: species or system rat; settings: oral, male rats
# Procedure: In this assay, an air-pouch is created in the rat and the PGE2 levels in the air-pouch exudate are measured by enzyme immunoassay. Briefly, male rats were anesthetized using a 60:40 CO2 :O2 mixture and subsequently injected subcutaneously with 20 ml of sterilized air, under aseptic conditions, in the proximal area of the dorsum. This injection of sterile air causes the creation of a subcutaneous "air pouch". The next day, a further 10 ml of sterile air was injected into the previously formed pouch using the same technique. […] Control rats received vehicle alone. After 30 minutes, 5 ml of a 0.5% solution of carrageenan (Sigma, Lambda Type IV) was injected into the air pouch. The rats were euthanized 3 hr after the compound administration. […] The total exudate volume was recorded, and the samples were analyzed for PGE2 and 6-keto PGF1 by ELISA (Titerzyme®, PerSeptive Diagnostics) and TxB2 by radioimmuno assay (New England Nuclear Research, Catalog No. NEK-037), according to the manufacturer's directions.
# The mean concentrations of PGE2 were calculated for each group. The anti-inflammatory activity of test materials is expressed as the percent inhibition of PGE2 formation in the test group relative to the control group.
# [4] = Acetic Acid-induced Rat Writhing Assay (analgesic activity); type: in vivo; settings: 10 mg/Kg, oral, male Sprague Dawley rats
# Excerpt: The analgesic activity of compounds of this invention may be determined by the Acetic Acid-induced Rat Writhing Assay, using a modification of the method described in Berkenkopf, J. W. and Weichman, B. M. "Production of Prostacyclin in Mice following Intraperitoneal Injection of Acetic Acid, Phenylbenzoquinone and Zymosan: Its Role in the Writhing Response". Prostaglandins: 36: 693-70 (1988). This assay is one of several acute assays which have been used to assess the analgesic activity of NSAIDs, and is considered predictive of human efficacy. The test materials were administered orally to male Sprague Dawley rats in a volume of 1 ml/100 g body weight as solutions or suspensions in an aqueous vehicle containing 0.9% NaCl, 0.5% sodium carboxymethyl-cellulose, 0.4% polysorbate 80, 0.9% benzyl alcohol and 97.3% water. Control rats received vehicle alone. One hour after compound administration, 0.3 ml/100 g body weight of 0.75% solution of acetic acid was injected intraperitoneally. The acetic acid injection induces a series of characteristic writhing responses, which were counted over the period between 15 and 30 minutes after the injection. The analgesic activity of test materials is expressed as the percentage inhibition of writhing in the test group relative to the control group.
# [5] = Carrageenan-induced paw edema in the rat (anti-inflammatory activity); type: in vivo; settings: 3 h, 10 mg/Kg, oral, female rats, read-out: % inhibition of increase in hind paw weight
# Procedure: The anti-inflammatory activity of compounds of this invention was determined by measuring the inhibition of carrageenan-induced paw edema in the rat, using a modification of the method described in Winter C. k et al (1962) "Carrageenan-Induced Edema in Hind Paw of the Rat as an Assay for Anti-inflammatory Drugs". Proc. Soc. Exp. Biol. Med. 111: 544-547. This assay has been used as a primary in vivo screen for anti-inflammatory activity of most NSAIDs, and is considered predictive of human efficacy. Briefly, test materials were administered orally to female rats in a volume of 1 ml prepared as solutions or suspensions in an aqueous vehicle containing 0.9% NaCl, 0.5% sodium carboxymethyl-cellulose, 0.4% polysorbate 80, 0.9% benzyl alcohol and 97.3% distilled water. Control rats received vehicle alone. After 1 hr 0.05 ml of a 0.5% solution of Carrageenan (Type IV Lambda, Sigma Chemical Co.) in 0.9% saline was injected into the subplantar region of the right hind paw. Three hours later the rats were euthanized in a carbon dioxide atmosphere; hind paws were removed by severing at the tatso-crural joint; and the left and right paws were weighed. The increase in weight of the right paw over the left paw was obtained for each animal and the mean increases were calculated for each group. The anti-inflammatory activity of the test materials is expressed as the percent inhibition of the increase in hind paw weight of the test group relative to the vehicle-dosed control group.
# The anti-inflammatory activities (expressed as % inhibition) of some of the compounds of the invention were: […]
# [6] = Alzheimer's patients; Rogers, J., et. al., Neurology, (1993), 43, 1609; cited from earlier work
# COX I, sequence (P23219 24-599): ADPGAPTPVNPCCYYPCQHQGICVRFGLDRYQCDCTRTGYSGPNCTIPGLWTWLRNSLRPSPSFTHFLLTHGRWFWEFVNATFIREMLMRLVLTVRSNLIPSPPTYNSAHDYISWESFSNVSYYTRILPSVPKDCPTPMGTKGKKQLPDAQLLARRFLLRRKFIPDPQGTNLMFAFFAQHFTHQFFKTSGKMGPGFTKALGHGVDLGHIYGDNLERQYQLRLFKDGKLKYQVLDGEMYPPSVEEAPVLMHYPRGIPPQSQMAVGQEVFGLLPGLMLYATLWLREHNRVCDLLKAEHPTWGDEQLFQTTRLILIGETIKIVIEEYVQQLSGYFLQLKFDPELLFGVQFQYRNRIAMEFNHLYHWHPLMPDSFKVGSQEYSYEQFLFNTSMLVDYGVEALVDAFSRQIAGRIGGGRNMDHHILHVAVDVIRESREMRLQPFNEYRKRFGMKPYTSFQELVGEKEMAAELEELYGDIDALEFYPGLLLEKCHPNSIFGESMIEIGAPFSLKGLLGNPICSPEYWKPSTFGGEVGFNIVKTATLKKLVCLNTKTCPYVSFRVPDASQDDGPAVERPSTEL
SMILES,IC50 [1],IC50 [2],% inhibition of air pouch PGE2 formation ([3]; 10 mg/Kg),% inhibition of writhing responses [4],inhibition in vivo at 10 mg/kg [5],effect on cognitive decline [6],% inhibition of air pouch PGE2 formation ([3]; 2-5 mg/Kg)
"COc1ccc(C(=O)c2cccc(Cc3ccc(=O)[nH]n3)c2Cl)cc1 [Cpd 2, 6-[3-(4-methoxybenzoyl)-2-chlorobenzyl]-2H-pyridazin-3-one]",57 µM,0.1 µM,32%,9%,20%,,
"COc1ccc2c(c1)c(CC(=O)O)c(C)n2C(=O)c1ccc(Cl)cc1 [Indomethacin, reference compound]",,,,,,inhibit the cognitive decline of Alzheimer's patients,> 70%
